#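 Each compound was tested at five concentrations against cells in 96-well plates for 48 hours. Here, GI50 denotes the concentration required for 50% inhibition of growth.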 The source made the active and inactive calls. Rule as the data show it: active = GI50 up to about 1.1 µM and inactive = higher.
# Columns and labels:
# Test in all cases: DTP human tumour cell line panel, 48 h
# M14 = test system: M14
# HCC 2998 = test system: HCC 2998
# HOP-92 = test system: HOP-92
# CCRF-CEM = test system: CCRF-CEM
# LOX IMVI = test system: LOX IMVI
# DU-145 = test system: DU-145
# UACC-62 = test system: UACC-62
# OVCAR-3 = test system: OVCAR-3
# ACHN = test system: ACHN
# RPMI-8226 = test system: RPMI-8226
# EKVX = test system: EKVX
# BT-549 = test system: BT-549
# COLO 205 = test system: COLO 205
# SNB-75 = test system: SNB-75
# CAKI-1 = test system: CAKI-1
# HOP-62 = test system: HOP-62
# NCI-H460 = test system: NCI-H460
# HCT-15 = test system: HCT-15
# T47D = test system: T47D
# HCT-116 = test system: HCT-116
smiles,measurement,setting,value
Cc1nc2ccccc2n1CCc1nc2ccccc2[nH]1,GI50,M14,> 100 µM (inactive)
same,GI50,HCC 2998,> 100 µM (inactive)
same,GI50,HOP-92,> 100 µM (inactive)
same,GI50,CCRF-CEM,> 100 µM (inactive)
same,GI50,LOX IMVI,> 100 µM (inactive)
same,GI50,DU-145,> 100 µM (inactive)
same,GI50,UACC-62,> 100 µM (inactive)
same,GI50,OVCAR-3,> 100 µM (inactive)
same,GI50,ACHN,> 100 µM (inactive)
same,GI50,RPMI-8226,> 100 µM (inactive)
same,GI50,EKVX,> 100 µM (inactive)
same,GI50,BT-549,> 100 µM (inactive)
same,GI50,COLO 205,> 100 µM (inactive)
same,GI50,SNB-75,> 100 µM (inactive)
same,GI50,CAKI-1,> 100 µM (inactive)
same,GI50,HOP-62,> 100 µM (inactive)
same,GI50,NCI-H460,> 100 µM (inactive)
same,GI50,HCT-15,> 100 µM
same,GI50,T47D,> 100 µM (inactive)
same,GI50,HCT-116,> 100 µM (inactive)
